Values of other authors in PMC12394750, “2H-1,4-Benzoxazin-3(4H)-one linked 1,2,3-triazole derivatives and their study on inducing DNA damage in tumor cells” (Frontiers in Pharmacology, 2025).
Where two headings read alike, the source gives them in different places.

Columns and labels:
A549 lung cancer cells = system: A549 lung cancer cells; design: method as in Han et al., 2024; conditions: ref Han et al., 2024; cited from earlier work
[1] = target: mineralocorticoid receptor; design: method as in Hasui et al., 2011; conditions: ref Hasui et al., 2011; read-out: Mineralocorticoid receptor antagonist IC50; cited from earlier work
EGFR = system: EGFR; design: method as in Sagam et al., 2024; conditions: ref Sagam et al., 2024; read-out: EGFR inhibitory activity, IC50; cited from earlier work
Jurkat cells = system: Jurkat cells; design: method as in Pokhodylo et al., 2022; conditions: ref Pokhodylo et al., 2022; cited from earlier work
MCF-7 cells = system: MCF-7 cells; design: method as in Nagavelli et al., 2016; conditions: ref Nagavelli et al., 2016; cited from earlier work
HeLa cells = system: HeLa cells; design: method as in Nagavelli et al., 2016; conditions: ref Nagavelli et al., 2016; cited from earlier work
A549 cancer cells = system: A549 cancer cells; design: method as in Feng et al., 2010; conditions: ref Feng et al., 2010; cited from earlier work
MV4-11 cancer cells = system: MV4-11 cancer cells; design: method as in Feng et al., 2010; conditions: ref Feng et al., 2010; cited from earlier work
DLD-1 cancer cells = system: DLD-1 cancer cells; design: method as in Feng et al., 2010; conditions: ref Feng et al., 2010; cited from earlier work
A549 cell [2] = system: A549 cell; design: method as in Zhou et al., 2014; conditions: ref Zhou et al., 2014; read-out: Inhibition of A549 cell proliferation, IC50; cited from earlier work
A549 cell [3] = conditions: Tummatorn's team, no reference given; read-out: A549 cell proliferation, IC50; cited from earlier work

For `C#CCCC(=O)OC1CC2[C@@]3(C)CCC(OC(=O)CCc4cn(CC(=O)OC)nn4)C(C)(C)C3CC[C@@]2(C)[C@]2(C)CCC([C@](C)(O)CCCC(C)(C)OC)C12` (stereo partly drawn) [compound 6a], the “Inhibitory activity against A549” value (A549 lung cancer cells) is listed as “strong inhibitory activity”.

For `Cc1cc(F)ccc1-n1nc(C(F)(F)F)cc1-c1ccc2c(c1)NC(=O)CO2` [compound 14n], the IC50 [1] is listed as 41 nM.

In the case of `O=C(Cn1nnc(CCN2C(=O)COc3ccccc32)n1)Nc1ccc(Cl)cc1` [compound 12g], the IC50 (EGFR) is listed as 460 nM.

For `Cc1c(C(=O)Nc2ccc(SC#N)cc2)nnn1-c1ccc(C(C)C)cc1` [compound 4a], the DNA damage (Jurkat cells) is given as “induce DNA damage” and the Mitochondrial membrane potential (Jurkat cells) is given as “reduce mitochondrial membrane potential”.

In the case of `COc1cccc(-c2ccc3c(c2)OCC(=O)N3Cc2cn(-c3cc(Cl)cc(Cl)c3)nn2)c1` [compound 5b], the “Cytotoxicity against MCF-7, IC50” value (MCF-7 cells) is listed as 17.08 µg/mL and the “Cytotoxicity against HeLa, IC50” value (HeLa cells) is listed as 15.38 µg/mL.

In the case of `O=C1COc2ccc(-c3[nH]c(-c4ccc(C(F)(F)F)cc4)nc3-c3ccccc3)cc2N1` [compound 9c], the “Viability of A549 cancer cells” value (A549 cancer cells) is listed as “significantly reduced”, the “Viability of MV4-11 cancer cells” value (MV4-11 cancer cells) is listed as “significantly reduced” and the “Viability of DLD-1 cancer cells” value (DLD-1 cancer cells) is listed as “significantly reduced”.

For `COc1cc(/C=C/C(=O)c2ccc3c(c2)NC(=O)CO3)cc(OC)c1` [compound 3c], the IC50 (A549 cell [2]) is given as 3290 nM.

In the case of `Fc1ccc2c(c1)C1=Nc3ccc(Br)cc3C1CN2Cc1cn(Cc2cccc(Cl)c2)nn1` (stereo not drawn) [compound 11l], the IC50 (A549 cell [3]) is listed as 3010 nM.
